± gives the expanded uncertainty stated by the source.
Assay: mn = molality of the nth substance listed, in mol/kg
Conditions: 84.5 kPa, Liquid; for speed of sound: Frequency=3 MHz, Sing-around technique in a fixed-path interferometer; for mass density: Vibrating tube method

CCO [ethanol] + O
Conditions | mass density, 288.15 K [kg/m3] | mass density, 293.15 K [kg/m3] | mass density, 298.15 K [kg/m3] | mass density, 303.15 K [kg/m3] | mass density, 308.15 K [kg/m3] | speed of sound, 288.15 K [m/s] | speed of sound, 293.15 K [m/s] | speed of sound, 298.15 K [m/s] | speed of sound, 303.15 K [m/s] | speed of sound, 308.15 K [m/s]
m1 = 0.02159 | 998.9 ± 0.11 | 998.003 ± 0.11 | 996.845 ± 0.11 | 995.446 ± 0.11 | 993.829 ± 0.11 | 1467.4 ± 1.2 | 1483.4 ± 1.2 | 1497.5 ± 1.2 | 1509.8 ± 1.2 | 1520.4 ± 1.2
m1 = 0.04347 | 998.707 ± 0.11 | 997.81 ± 0.11 | 996.654 ± 0.11 | 995.257 ± 0.11 | 993.639 ± 0.11 | 1468.2 ± 1.2 | 1484.2 ± 1.2 | 1498.2 ± 1.2 | 1510.5 ± 1.2 | 1521 ± 1.2
m1 = 0.06495 | 998.526 ± 0.11 | 997.632 ± 0.11 | 996.474 ± 0.11 | 995.076 ± 0.11 | 993.46 ± 0.11 | 1469.1 ± 1.2 | 1485 ± 1.2 | 1498.9 ± 1.2 | 1511.1 ± 1.2 | 1521.6 ± 1.2
m1 = 0.08646 | 998.318 ± 0.11 | 997.424 ± 0.11 | 996.265 ± 0.11 | 994.87 ± 0.11 | 993.243 ± 0.11 | 1470 ± 1.2 | 1485.8 ± 1.2 | 1499.7 ± 1.2 | 1511.7 ± 1.2 | 1522.2 ± 1.2
m1 = 0.1087 | 998.132 ± 0.11 | 997.24 ± 0.11 | 996.081 ± 0.11 | 994.683 ± 0.11 | 993.05 ± 0.11 | 1470.8 ± 1.2 | 1486.5 ± 1.2 | 1500.4 ± 1.2 | 1512.4 ± 1.2 | 1522.8 ± 1.2
m1 = 0.1306 | 997.942 ± 0.11 | 997.051 ± 0.11 | 995.892 ± 0.11 | 994.494 ± 0.11 | 992.873 ± 0.11 | 1471.7 ± 1.2 | 1487.3 ± 1.2 | 1501.1 ± 1.2 | 1513 ± 1.2 | 1523.3 ± 1.2
m1 = 0.1749 | 997.562 ± 0.11 | 996.671 ± 0.11 | 995.508 ± 0.11 | 994.111 ± 0.11 | 992.498 ± 0.11 | 1473.4 ± 1.2 | 1488.9 ± 1.2 | 1502.5 ± 1.2 | 1514.2 ± 1.2 | 1524.4 ± 1.2
m1 = 0.2188 | 997.195 ± 0.11 | 996.303 ± 0.11 | 995.144 ± 0.11 | 993.747 ± 0.11 | 992.123 ± 0.11 | 1475 ± 1.2 | 1490.4 ± 1.2 | 1503.8 ± 1.2 | 1515.5 ± 1.2 | 1525.5 ± 1.2
